US7638556B2, “Freeze-dried product of N-[o-(p-pivaloyloxy benzenesulfonylamino)benzoyl]glycine monosodium salt tetra-hydrate and a process for the manufacture thereof” (Ono Pharmaceutical Co., Ltd., priority 2000, dated 2009)
Like-named read-outs stand apart in the source and are kept apart here.

Experiments:
[1] = solubility of compound (I) in water or ethanol; assay type: physicochemical
Experimental: However, compound (I) is hardly soluble in water or ethanol; the solubility is 0.4 mg/ml in water, and 6.0 mg/ml in ethanol. Therefore, by normal solvents it is difficult to prepare a clear solution for the process of a high-dosage freeze-dried product.
Compound (I) has, as shown above, a very low solubility; 0.4 mg/ml in water, 6.0 mg/ml in ethanol. In order to obtain a freeze-dried product to prepare a high-dosage product of this compound, it is necessary to improve the solubility.

[2] = solubility in mixed solvent of ethanol and water by titration until completely dissolved (Example 1); assay type: physicochemical; details: thermodynamic from solid
Experimental: By the following method, the concentration of compound (I) was measured when compound (I) was completely dissolved in various ratios of mixed solvent comprising water and ethanol.
Above mixed solvent was titrated with various added volume for compound (I) and the mixture was vigorously stirred and was left alone for several minutes.
The above operation was done repeatedly until confirming that the solute was completely dissolved by visual recognition.
Solubility A was given by dividing the amount of solute (mg) with the volume of added solvent (ml) when the solute was completely dissolved; and solubility B was given by dividing the amount of solute with the volume of added solvent before the solute was completely dissolved (mg).
It is judged that the solubility of compound (I) to mixed solvent of ethanol and water is between solubility A and solubility B.

[3] = prior freeze-dried product method using sodium carbonate and water; cited from earlier work
elastase = biological target: T1, elastase (Homo sapiens, UniProt P08246); details: cited from earlier work
T1 sequence (P08246 30-267): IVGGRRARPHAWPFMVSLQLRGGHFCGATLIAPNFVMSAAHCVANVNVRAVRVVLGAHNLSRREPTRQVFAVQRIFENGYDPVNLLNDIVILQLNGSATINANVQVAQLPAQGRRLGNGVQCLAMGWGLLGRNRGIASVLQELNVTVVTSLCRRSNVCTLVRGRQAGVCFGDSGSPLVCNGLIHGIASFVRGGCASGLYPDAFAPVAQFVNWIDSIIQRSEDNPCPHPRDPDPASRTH

solubility ([1]; in water): 0.4 mg/mL
solubility ([1]; organic solvent or mixture, in ethanol): 6 mg/mL
solubility ([2]; aqueous with cosolvent or surfactant or cyclodextrin, ratio of ethanol 10 vol %, read-out: solubility A): 0.83 mg/mL
solubility ([2]; aqueous with cosolvent or surfactant or cyclodextrin, ratio of ethanol 10 vol %, read-out: solubility B): 0.91 mg/mL
solubility ([2]; aqueous with cosolvent or surfactant or cyclodextrin, ratio of ethanol 15 vol %, read-out: solubility A): 0.91 mg/mL
solubility ([2]; aqueous with cosolvent or surfactant or cyclodextrin, ratio of ethanol 15 vol %, read-out: solubility B): 1 mg/mL
solubility ([2]; aqueous with cosolvent or surfactant or cyclodextrin, ratio of ethanol 20 vol %, read-out: solubility A): 1.43 mg/mL
solubility ([2]; aqueous with cosolvent or surfactant or cyclodextrin, ratio of ethanol 20 vol %, read-out: solubility B): 1.67 mg/mL
solubility ([2]; aqueous with cosolvent or surfactant or cyclodextrin, ratio of ethanol 25 vol %, read-out: solubility A): 1.67 mg/mL
solubility ([2]; aqueous with cosolvent or surfactant or cyclodextrin, ratio of ethanol 25 vol %, read-out: solubility B): 2 mg/mL
solubility ([2]; aqueous with cosolvent or surfactant or cyclodextrin, ratio of ethanol 30 vol %, read-out: solubility A): 100 mg/mL
solubility ([2]; aqueous with cosolvent or surfactant or cyclodextrin, ratio of ethanol 30 vol %, read-out: solubility B): 125 mg/mL
solubility ([2]; aqueous with cosolvent or surfactant or cyclodextrin, ratio of ethanol 40 vol %, read-out: solubility A): 125 mg/mL
solubility ([2]; aqueous with cosolvent or surfactant or cyclodextrin, ratio of ethanol 40 vol %, read-out: solubility B): 167 mg/mL
solubility ([2]; aqueous with cosolvent or surfactant or cyclodextrin, ratio of ethanol 50 vol %, read-out: solubility A): 167 mg/mL
solubility ([2]; aqueous with cosolvent or surfactant or cyclodextrin, ratio of ethanol 50 vol %, read-out: solubility B): 250 mg/mL
solubility ([2]; aqueous with cosolvent or surfactant or cyclodextrin, ratio of ethanol 60 vol %, read-out: solubility A): 167 mg/mL
solubility ([2]; aqueous with cosolvent or surfactant or cyclodextrin, ratio of ethanol 60 vol %, read-out: solubility B): 250 mg/mL
solubility ([2]; aqueous with cosolvent or surfactant or cyclodextrin, ratio of ethanol 70 vol %, read-out: solubility A): 125 mg/mL
solubility ([2]; aqueous with cosolvent or surfactant or cyclodextrin, ratio of ethanol 70 vol %, read-out: solubility B): 167 mg/mL
solubility ([2]; aqueous with cosolvent or surfactant or cyclodextrin, ratio of ethanol 80 vol %, read-out: solubility A): 125 mg/mL
solubility ([2]; aqueous with cosolvent or surfactant or cyclodextrin, ratio of ethanol 80 vol %, read-out: solubility B): 167 mg/mL
solubility ([2]; aqueous with cosolvent or surfactant or cyclodextrin, ratio of ethanol 90 vol %, read-out: solubility A): 50 mg/mL
solubility ([2]; organic solvent or mixture, mixed solvent ethanol/water=3.0/7.0~8.0/2.0 (v/v), read-out: solubility): ≥ 80 mg/mL
solubility ([2]; organic solvent or mixture, ratio of ethanol 90 vol %, read-out: solubility B): 55.6 mg/mL
solubility ([2]; organic solvent or mixture, ratio of ethanol 100 vol %, read-out: solubility A): 5 mg/mL
solubility ([2]; organic solvent or mixture, ratio of ethanol 100 vol %, read-out: solubility B): 5.56 mg/mL
solubility ([2]; water, ratio of ethanol 0 vol %, read-out: solubility A): 0.22 mg/mL
solubility ([2]; water, ratio of ethanol 0 vol %, read-out: solubility B): 0.23 mg/mL
Compound: CC(C)(C)C(=O)Oc1ccc(S(=O)(=O)Nc2ccccc2C(=O)NCC(=O)[O-])cc1.[Na+] [compound (I), N-[o-(p-pivaloyloxybenzenesulfonylamino)benzoyl]glycine monosodium salt tetra-hydrate]
solubility [3]: < 80 mg/mL
inhibitory activity against elastase (elastase): inhibitory activity against elastase
